Experimental data from patent US8309552B2, “Immunomodulating heterocyclic compounds” (Medigene AG, priority 2003, dated 2012).

biological target: T1, CD80-CD28 interaction (Homo sapiens, UniProt P33681); assay: Homogenous Time Resolved Fluorescence (HTRF) assay, cell free; format: binding; conditions: cell free HTRF assay; concentration series 100 μM-1.7 nM; 4 hours at room temperature; read-out: Activity (EC50 in the HTRF assay)
T1 sequence (P33681 35-242 limits assumed): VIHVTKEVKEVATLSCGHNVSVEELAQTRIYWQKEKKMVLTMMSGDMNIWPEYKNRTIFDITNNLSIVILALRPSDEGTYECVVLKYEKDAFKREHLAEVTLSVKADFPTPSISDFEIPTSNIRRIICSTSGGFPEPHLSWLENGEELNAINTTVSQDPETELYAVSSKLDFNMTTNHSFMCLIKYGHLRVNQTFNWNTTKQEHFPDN
Summary of the method: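 Europium and APC labels were linked through antibodies to CD28 and CD80 fusion proteins. Compounds were tested at 100 μM-1.7 nM for 4 h at room temperature in 50 mM Tris-HCl, 150 mM NaCl pH7.8, 0.1% BSA. Emission read at 665 and 615 nm (excitation 340 nm); non-specific signal measured with C215 Fab in place of CD80; EC50 reported in bands.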

| SMILES | EC50 [nM] |
| --- | --- |
| COc1ccc(OCCNC(=O)Nc2ccc(-n3[nH]c4c(nnc5ccccc54)c3=O)cc2)cc1 [Example 225] | > 10000 |
| O=C(NCCSc1cc(C(F)(F)F)nc2ccccc12)Nc1ccc(-n2[nH]c3c(nnc4ccccc43)c2=O)cc1 [Example 227] | > 10000 |
| O=C(NCCN1CCCC1)c1ccc(-n2[nH]c3c(nnc4ccccc43)c2=O)cc1 [Example 259] | < 1000 |
| O=C(NCc1cccc(C(F)(F)F)c1)c1ccc(-n2[nH]c3c(nnc4ccccc43)c2=O)cc1 [Example 248] | > 10000 |
| O=C(NC1CCOC1=O)c1ccc(-n2[nH]c3c(nnc4ccccc43)c2=O)cc1 (stereo not shown) [Example 277] | 1000 to 10000 |
| O=C(NCCN1CCNC1=O)Nc1ccc(-n2[nH]c3c(nnc4ccccc43)c2=O)cc1 [Example 287] | < 1000 |
| CCC(C)NC(=O)c1ccc(-n2[nH]c3c(nnc4ccccc43)c2=O)cc1 (stereo not shown) [Example 258] | 1000 to 10000 |
| CC(C)(C)OC(=O)N1CCC(CNC(=O)Nc2ccc(-n3[nH]c4c(nnc5ccccc54)c3=O)cc2)CC1 [Example 264] | > 10000 |
| COc1ccc(CNC(=O)c2ccc(-n3[nH]c4c(nnc5ccccc54)c3=O)cc2)cc1 [Example 240] | < 1000 |
| O=C(NCC1CCNCC1)Nc1ccc(-n2[nH]c3c(nnc4ccccc43)c2=O)cc1 [Example 290] | < 1000 |
| CCC(CC)CNC(=O)Nc1ccc(-n2[nH]c3c(nnc4ccccc43)c2=O)cc1 [Example 221] | > 10000 |
| CC(C)NC(=O)c1ccc(-n2[nH]c3c(nnc4ccccc43)c2=O)cc1 [Example 243] | < 1000 |
| O=C(Nc1ccc(-n2[nH]c3c(nnc4ccccc43)c2=O)cc1)NC1CCCC1OCc1ccccc1 (stereo not shown) [Example 292] | > 10000 |

Now from value to compound:

| EC50 [nM] | SMILES |
| --- | --- |
| < 1000 | CC1CCCCN1CCCNC(=O)c1ccc(-n2[nH]c3c(nnc4cccc(F)c43)c2=O)cc1 (stereo not shown) [Example 394] |
| < 1000 | CNCCCNC(=O)c1ccc(-n2[nH]c3c(nnc4c(F)ccc(F)c43)c2=O)cc1 [Example 428] |
| < 1000 | O=C(NCCCN1CCCC1)c1ccc(-n2[nH]c3c(nnc4cccc(F)c43)c2=O)cc1 [Example 393] |
| < 1000 | CNCCCNC(=O)c1ccc(-n2[nH]c3c(nnc4ccc(OC)cc43)c2=O)cc1 [Example 418] |
| 1000 to 10000 | O=C(c1ccc(-n2[nH]c3c(nnc4cccc(F)c43)c2=O)cc1)N1CCC(N2CCCCC2)CC1 [Example 402] |
| 1000 to 10000 | O=C(c1ccc(-n2[nH]c3c(nnc4c(F)cccc43)c2=O)cc1)N1CCC(N2CCCCC2)CC1 [Example 421] |
| < 1000 | O=C(NCCCCN1CCOCC1)c1ccc(-n2[nH]c3c(nnc4ccccc43)c2=O)cc1 [Example 338] |
| < 1000 | CN(C)CC(C)(C)CNC(=O)c1ccc(-n2[nH]c3c(nnc4c(F)cccc43)c2=O)cc1 [Example 420] |
| < 1000 | C=CCNC(=O)c1ccc(-n2[nH]c3c(nnc4c(F)cccc43)c2=O)cc1 [Example 377] |
| < 1000 | O=C(NC1CCC1)c1ccc(-n2[nH]c3c(nnc4c(F)cccc43)c2=O)cc1 [Example 424] |

same assay, conditions: cell-free HTRF, compound concentration series 100 μM-1.7 nM, 4 hours at room temperature; read-out: Activity (EC50 in the HTRF assay)

| EC50 [nM] | SMILES |
| --- | --- |
| 1000 to 10000 | COCCNC(=O)Nc1ccc(-n2[nH]c3c(nnc4ccccc43)c2=O)cc1 [Example 140] |
| 1000 to 10000 | CN(CCNC(=O)c1ccc(-n2[nH]c3c(nnc4ccccc43)c2=O)cc1)C(=O)OC(C)(C)C [Example 97] |
| 1000 to 10000 | O=C(NCCc1ccc([N+](=O)[O-])cc1)Nc1ccc(-n2[nH]c3c(nnc4ccccc43)c2=O)cc1 [Example 155] |
| 1000 to 10000 | CC1C(NC(=O)c2ccc(-n3[nH]c4c(nnc5ccccc54)c3=O)cc2)CC2CC1C2(C)C (stereo not shown) [Example 121] |
| > 10000 | O=C(NCCNc1cccc2ccccc12)Nc1ccc(-n2[nH]c3c(nnc4ccccc43)c2=O)cc1 [Example 152] |
| < 1000 | CC(O)CCNC(=O)c1ccc(-n2[nH]c3c(nnc4ccccc43)c2=O)cc1 (stereo not shown) [Example 29] |
| 1000 to 10000 | O=C(NCCCCCNC(=O)OCc1ccccc1)Nc1ccc(-n2[nH]c3c(nnc4ccccc43)c2=O)cc1 [Example 219] |
| > 10000 | CC(CCc1ccccc1)NC(=O)c1ccc(-n2[nH]c3c(nnc4ccccc43)c2=O)cc1 (stereo not shown) [Example 105] |
| 1000 to 10000 | COCC(C)NC(=O)c1ccc(-n2[nH]c3c(nnc4ccccc43)c2=O)cc1 (stereo not shown) [Example 119] |
| < 1000 | CN1CCC(NC(=O)c2ccc(-n3[nH]c4c(nnc5ccccc54)c3=O)cc2)CC1 [Example 18] |
| 1000 to 10000 | CC(CCCC(C)(C)O)NC(=O)Nc1ccc(-n2[nH]c3c(nnc4ccccc43)c2=O)cc1 (stereo not shown) [Example 137] |
| 1000 to 10000 | CCOC(=O)CCNC(=O)Nc1ccc(-n2[nH]c3c(nnc4ccccc43)c2=O)cc1 [Example 156] |
| 1000 to 10000 | CC(C)(C)OC(=O)NCCCNC(=O)Nc1ccc(-n2[nH]c3c(nnc4ccccc43)c2=O)cc1 [Example 213] |
| 1000 to 10000 | CC(C)(C)OC(=O)NCCCCCCNC(=O)c1ccc(-n2[nH]c3c(nnc4ccccc43)c2=O)cc1 [Example 117] |
| > 10000 | CC(C)(C)OC(=O)NCCCCNC(=O)Nc1ccc(-n2[nH]c3c(nnc4ccccc43)c2=O)cc1 [Example 220] |
| 1000 to 10000 | CC(NC(=O)c1ccc(-n2[nH]c3c(nnc4ccccc43)c2=O)cc1)C(C)(C)C (stereo not shown) [Example 88] |
| > 10000 | O=C(NCCSCc1c(F)cccc1Cl)Nc1ccc(-n2[nH]c3c(nnc4ccccc43)c2=O)cc1 [Example 180] |
| < 1000 | O=C(NCCCCCO)c1ccc(-n2[nH]c3c(nnc4ccccc43)c2=O)cc1 [Example 112] |
| 1000 to 10000 | O=C(Nc1ccc(-n2[nH]c3c(nnc4ccccc43)c2=O)cc1)NC1CCCN(Cc2ccccc2)C1 (stereo not shown) [Example 197] |
| 1000 to 10000 | COCCNC(=O)c1ccc(-n2[nH]c3c(nnc4ccccc43)c2=O)cc1 [Example 9a] |
| < 1000 | CCNCCNC(=O)Nc1ccc(-n2[nH]c3c(nnc4ccccc43)c2=O)cc1 [Example 143] |
| > 10000 | CCCCCC(C)NC(=O)Nc1ccc(-n2[nH]c3c(nnc4ccccc43)c2=O)cc1 (stereo not shown) [Example 181] |

same assay, conditions: cell-free HTRF, concentration series 100 μM-1.7 nM, 4 hours at room temperature; read-out: Activity (EC50 in the HTRF assay)

| EC50 [nM] | SMILES |
| --- | --- |
| < 1000 | O=C(NCCCCF)c1ccc(-n2[nH]c3c(nnc4c(F)cccc43)c2=O)cc1 [Example 437] |
| < 1000 | O=C(NCCCC(F)F)c1ccc(-n2[nH]c3c(nnc4c(F)cccc43)c2=O)cc1 [Example 485] |
| < 1000 | O=C(NCCCCN1CCC(C(F)(F)F)CC1)c1ccc(-n2[nH]c3c(nnc4c(F)cccc43)c2=O)cc1 [Example 470] |
| < 1000 | C=CCN(CCCCNC(=O)c1ccc(-n2[nH]c3c(nnc4c(F)cccc43)c2=O)cc1)C1CCCC1 [Example 469] |
| 1000 to 10000 | O=C(NCC1CCCCC1O)c1ccc(-n2[nH]c3c(nnc4c(F)cccc43)c2=O)cc1 (stereo not shown) [Example 504] |
| 1000 to 10000 | CCCN(CC)C(=O)c1ccc(-n2[nH]c3c(nnc4c(F)cccc43)c2=O)cc1 [Example 452] |
| < 1000 | CC(C)(C)NCCCCNC(=O)c1ccc(-n2[nH]c3c(nnc4c(F)cccc43)c2=O)cc1 [Example 479] |
| 1000 to 10000 | O=C(N[C@H]1c2ccccc2C[C@H]1O)c1ccc(-n2[nH]c3c(nnc4c(F)cccc43)c2=O)cc1 [Example 510] |
| < 1000 | CC1CN(CCCCNC(=O)c2ccc(-n3[nH]c4c(nnc5c(F)cccc54)c3=O)cc2)CC(C)O1 (stereo not shown) [Example 460] |

same assay, conditions: inhibition of the CD80-CD28 interaction, 4 hours at room temperature; read-out: EC50 activity in the HTRF assay

| EC50 [nM] | SMILES |
| --- | --- |
| < 1000 | CN(C)CCCNC(=O)Nc1ccc(-n2[nH]c3c(nnc4ccccc43)c2=O)cc1 [Example 8, N-[3-(dimethylamino)propyl]-N′-[4-(3-oxo-1,3-dihydro-2H-pyrazolo[4,3-c]cinnolin-2-yl)phenyl]urea] |
